# Reference: patent US10125157B2, “Derivatives of oxazaphosphorines that are pre-activated, use and method of preparation” (priority 2010, dated 2018)
# Read-outs that look alike come from different tables or passages of the source.
# Experiments:
# [1] = Chemical stability of the 4-methoxy analogue; format: physicochemical; conditions: releases isophosphoramide mustard rapidly
# [2] = compared with the active metabolite of IFO; cited from earlier work
# MCF-7 MDR = assay: In vitro cytotoxicity, MTS cell viability test, 72 h; format: cell-based; conditions: Homo sapiens
# Experimental: (§1) The cells were seeded in 96-well plates (TPP).
# (§2) J. Pharm, 1989, 55, R1-R4.
# (§3) The results are expressed as percentage of untreated cells. […] IC50 values were thus calculated for each line. Ifosfamide and squalenol were used as controls.
# B16F10 = assay: as above; format: cell-based; conditions: Mus musculus
# Experimental: as §1, §2, §3
# KB 3.1 = assay: as above; format: cell-based; conditions: Homo sapiens
# Experimental: as §1, §2, §3
# MiaPaCa-2 = assay: as above; format: cell-based; conditions: Homo sapiens
# Experimental: as §1, §2, §3
# A549 = assay: as above; format: cell-based; conditions: Homo sapiens
# Experimental: as §1, §2, §3
# MCF-7 = assay: as above; format: cell-based; conditions: Homo sapiens
# Experimental: as §1, §2, §3
# SK-N-MC (Ewing) = assay: as above; format: cell-based; conditions: for IC50: Homo sapiens; for cytotoxic activity (in words): SK-N-MC (Ewing) cells
# Experimental: as §1, §2, §3
# several cell lines = assay: In vitro cytotoxicity over the panel of cell lines (MTS); conditions: all cell lines tested, concentrations between 0.1 and 100 μM
# Text: Cytotoxicity of SQ-IFO and SQ-thio-IFO nanoparticles was studied in several cell lines:
# • A549: human alveolar basal epithelial cell adenocarcinoma • MCF-7: human breast carcinoma • MCF-7 MDR: multidrug resistant human breast carcinoma • B16F10: mouse melanoma • KB 3.1: human epidermoid carcinoma • M109: mouse lung tumor cells • MiaPaCa-2: human pancreatic carcinoma • UW-479: human pediatric glioma • IGR OV1: human ovarian cancer • SK-N-MC: neuroblastoma, reclassified as Ewing (expression of EWS/Flip-1 oncogene)
# The cell lines were maintained in DMEM or RPMI medium supplemented with 10% fetal calf serum and 1% antibiotics (100 U/mL penicillin and 100 μg/mL streptomycin) in an incubator at 37° C. in a humid 5% carbon dioxide atmosphere.
# The cells were seeded in 96-well plates (TPP). Seeding was optimized for each line for an incubation time of 72 hours.
# A549, MCF-7, B16F10, M109, MiaPaCa-2 cells were seeded at 5·10^3 cells/well. […] cells were seeded at 2·10^3 cells/well, IGR-OV1 cells at 10^4 cells/well and UW479 and SK-N-MC cells at 5·10^4 cells/well.
# The compounds SQ-IFO and SQ-thio-IFO were synthesized according to the protocol described above. For each compound, an aqueous suspension of nanoparticles was prepared using the technique described by Fessi, Int. J. Pharm, 1989, 55, R1-R4.
# For each compound, different concentrations between 0.1 and 100 μM were tested by serial dilution of a 2 mg/mL stock solution for SQ-IFO and a 10 mg/mL stock solution for SQ-thio-IFO in culture medium.
# After 72 hours of incubation, cell viability was determined by observing the reduction of MTS reagent to formazan (CellTiter 96 AQueous One Solution kit, Promega). 20 μL of a 5 mg/mL solution of MTS in PBS were added per well. The incubation time of the MTS was optimized for each cell line; the absorbance at 490 nm was then read using a plate reader (EL808, Biotek).
# The results are expressed as percentage of untreated cells. The data were treated with Prism 4 software (Graph Pad Software, San Diego). IC50 values were thus calculated for each line. Ifosfamide and squalenol were used as controls.
# UW 479 (Glioma) = assay: In vitro cytotoxicity, MTS cell viability test, 72 h; format: cell-based, human; conditions: for IC50: Homo sapiens; for cytotoxic activity (in words): UW 479 (Glioma) cells
# Experimental: as §1, §2, §3
# IGR-OV1 (Ovary) = assay: as above; format: cell-based, human; conditions: for IC50: Homo sapiens; for cytotoxic activity (in words): IGR-OV1 (Ovary) cells
# Experimental: as §1, §2, §3
# M109 = assay: as above; format: cell-based, mouse; conditions: for cytotoxic activity (in words): M109 cell line; for IC50: Mus musculus
# Experimental: as §1, §2, §3
# [3] = Nanoparticle size in aqueous medium; format: physicochemical; conditions: for average size of nanoparticles: aqueous suspension prepared by the technique of Fessi, spherical; for size of nanoparticles: self-assembly in an aqueous medium
# Text: For example, the most recent and most promising application concerns the attachment of a squalene residue by this method by adding squalenol or squalene-thiol in the presence of BF3ET2O on the phosphoryl-iminium produced from 4-methoxy-MFI (Schemes 7 and 8). The compounds formed, SQ-4-O-MFI and SQ-4-S-MFI, have two interesting properties. The first is that they are pre-activated forms of MFI due to oxidation in position 4 that can release, in a slightly acidic aqueous medium, the alkylating mustard directly without metabolic activation. The second is that they are capable of self-assembly in an aqueous medium in the form of nanoparticles of a size of about 160 nm.
# as §2
# [4] = tested on: RD human pediatric rhabdomyosarcoma model; assay: In vivo efficacy, human rhabdomyosarcoma xenografted in nude mice; conditions: RD xenograft, treated when tumor volume >80 mm^3, preliminary results
# Experimental: In vivo cytotoxic efficacy was evaluated first on a model of human rhabdomyosarcoma xenografted in nude mice. The model used is the RD human pediatric rhabdomyosarcoma model. The cells were first amplified in culture and counted. 10·10^6 cells were injected subcutaneously in both flanks of each mouse. After graft uptake, when tumor volume reached >80 mm^3, the mice were treated with IFO-SQ or placebo.
Compound,"IC50 (MCF-7 MDR; MCF7, 72 h)","IC50 (B16F10; B16-F10, 72 h)","IC50 (KB 3.1; KB 3-1, 72 h)","IC50 (MiaPaCa-2; MIA PaCa-2, 72 h)","IC50 (A549; A549, 72 h)","IC50 (MCF-7; MCF7, 72 h)","IC50 (SK-N-MC (Ewing); SK-N-MC, 72 h)",cytotoxic activity (in words) (SK-N-MC (Ewing)),in vitro cytotoxicity (in words) (several cell lines),IC50 (UW 479 (Glioma); 72 h),cytotoxic activity (in words) (UW 479 (Glioma)),"IC50 (IGR-OV1 (Ovary); IGROV-1, 72 h)",cytotoxic activity (in words) (IGR-OV1 (Ovary)),cytotoxic activity (in words) (M109),"IC50 (M109; M109, 72 h)",average size of nanoparticles [3],size of nanoparticles [3],further results
"COC1CCOP(=O)(NCCCl)N1CCCl (stereo not shown) [4-MeO-IFO, 4-methoxy-ifosfamide]",,,,,,,,,,,,,,,,,,chemical stability [1]: quite unstable; cytotoxic potency [2]: equivalent to that of the active metabolite of IFO
CC(C)=CCC/C(C)=C/CC/C(C)=C/CC/C=C(\C)CC/C=C(\C)CCCOC1CCOP(=O)(NCCCl)N1CCCl (stereo not shown) [Ifosfamide SQ],78.8 µM,73 µM,50 µM,32.5 µM,32.5 µM,43.6 µM,> 100 µM,not observed,high in vitro cytotoxicity,> 100 µM,not observed,> 100 µM,not observed,not observed,> 100 µM,182 nm,about 160 nm,tumor volume compared to mice treated with placebo [4]: significant decrease in tumor volume
"O=P1(NCCCl)OCCCN1CCCl (stereo not shown) [Ifosfamide, reference compound]",,,,,,,,,did not exhibit significant cytotoxicity,,,,,,,,,"IC50 (MCF-7 MDR; MCF7, MCF-7 MDR, 72 h incubation, nanoparticle suspension, MTS, read-out: IC50): > 100 µM; IC50 (B16F10; B16-F10, B16F10, 72 h incubation, nanoparticle suspension, MTS, read-out: IC50): > 100 µM; IC50 (KB 3.1; KB 3-1, KB 3.1, 72 h incubation, nanoparticle suspension, MTS, read-out: IC50): > 100 µM; IC50 (MiaPaCa-2; MIA PaCa-2, MiaPaCa-2, 72 h incubation, nanoparticle suspension, MTS, read-out: IC50): > 100 µM; IC50 (A549; A549, 72 h incubation, nanoparticle suspension, MTS, read-out: IC50): > 100 µM; IC50 (MCF-7; MCF7, MCF-7, 72 h incubation, nanoparticle suspension, MTS, read-out: IC50): > 100 µM; IC50 (SK-N-MC (Ewing); SK-N-MC (Ewing), 72 h incubation, nanoparticle suspension, MTS, read-out: IC50): > 100 µM; IC50 (UW 479 (Glioma); UW 479 (Glioma), 72 h incubation, nanoparticle suspension, MTS, read-out: IC50): > 100 µM; IC50 (IGR-OV1 (Ovary); IGROV-1, IGR-OV1 (Ovary), 72 h incubation, nanoparticle suspension, MTS, read-out: IC50): > 100 µM; IC50 (M109; M109, 72 h incubation, nanoparticle suspension, MTS, read-out: IC50): > 100 µM"
"CC(C)=CCC/C(C)=C/CC/C(C)=C/CC/C=C(\C)CC/C=C(\C)CCC(=O)NCCSC1CCOP(=O)(NCCCl)N1CCCl (stereo not shown) [Ifosfamide-thio-SQ, (2-chloro-ethyl)-[3-(2-chloro-ethyl)-2-oxo-4-mercaptoethylamidosqualen-[1,3,2]oxazaphosphinan-2-yl]-amine]",80 µM,16.9 µM,2.96 µM,4.4 µM,5.3 µM,10.9 µM,19 µM,high cytotoxic activity,high in vitro cytotoxicity,65 µM,high cytotoxic activity,81 µM,high cytotoxic activity,high cytotoxic activity,9.2 µM,182 nm,about 160 nm,
tris-nor-squalenol [reference compound],,,,,,,,,did not exhibit significant cytotoxicity,,,,,,,,,
